One data set has as its system PC3-PSCA tumors. Description: Established subcutaneous PC3-PSCA tumors. The note with it: day 43; 1G8 1 mg 3×/week 3 weeks; doxorubicin 25 μg once weekly 3 weeks.
Data set [1] in a line: LD50 experiment to determine the maximum tolerable dose. Format: in vivo, mice. On the procedure:
An LD50 experiment was performed to determine the maximum tolerable dose of doxorubicin. Doxorubicin (Sigma) and was resuspended in sterile PBS. Doxorubicin was administered by intraperitoneal injection, at the following doses: 50 μg, 25 μg, 12.5 μg, and 6.75 μg. […] At the lower dose ranges, the mice survived for more than 4 weeks. The maximal tolerable dose was 25 μg.

Molecules are shown by their SMILES.

Method for PC3-PSCA tumors: PC3-PSCA cells were derived by retroviral gene transfer. […] Amphotropic retrovirus was generated by co-transfection of 293T cells with pSR-α containing PSCA and a retroviral helper plasmid containing the amphotropic envelope protein. PC3 cells were subsequently infected with the PSCA containing amphotropic retrovirus, and 48 hours after infection the cells were selected by growth in medium containing the neomycin analogue G418. After 2-3 weeks of selection and expansion, a Western blot was performed to confirm that the PC3-PSCA cells express PSCA protein.
PC3-PSCA cells were grown in T-150 flasks in DMEM+10% FBS prior to the injections. The cells were grown to log phase, harvested, washed, counted, then mixed with Matrigel at a 1:1 dilution, and kept on ice. For injection, male IcR-SCID mice were shaved on their flanks, and each mouse received a single subcutaneous injection of about 1×10^6 cells in a volume of 100 μl on the right flank. The growth of PC3-PSCA tumors was followed by caliper measurements of the growing tumors. The mice were selected for treatment when the tumor reached the size of 100-200 mm^3, at approximately 9 days after the subcutaneous injection. The tumor size was measured at days +9, +15, +23, +29, +36, and +43 post injection.
The mice treated with 1G8, were administered 1 mg of 1G8, three times per week for three consecutive weeks. […]

On to `COc1cccc2c1C(=O)c1c(O)c3c(c(O)c1C2=O)C[C@@](O)(C(=O)CO)C[C@@H]3O[C@H]1C[C@H](N)[C@H](O)[C@H](C)O1` [doxorubicin], for which, in the data set with PC3-PSCA tumors, the “growth inhibition compared to PBS” value worked out at 4%. Also, in data set [1] (25 μg, 12.5 μg, 6.75 μg intraperitoneal), the “survival at the lower dose ranges” value is listed as “more than 4 weeks”. In addition, in data set [1] (50 μg intraperitoneal), the “mortality at the highest dose” value is given as “all the mice died within 2 weeks”. Also, the maximal tolerable dose in data set [1] (intraperitoneal injection) came out at 25 µg.

The values above are taken from patent US6825326B2, “PSCA: prostate stem cell antigen and uses thereof” (The Regents of the University of California, priority 1997, dated 2004).
